Reference: ChEMBL document CHEMBL3351884, “Semi-synthesis of oxygenated dolabellane diterpenes with highly in vitro anti-HIV-1 activity” (Bioorg Med Chem Lett, 2014)

How the values were obtained:
[1] = Selectivity index, ratio of CC50 for human MT2 cells to EC50 for X4 tropic HIV1 3B infected in human MT2 cells; format: toxicity, cell-based; settings: read-out: Ratio CC50/EC50
[2] = test system: Human immunodeficiency virus 1; assay: Antiviral activity against X4 tropic HIV1 3B infected in human MT2 cells assessed as protection against virus-induced cytopathic effect after 2 to 3 days by MTT assay; format: functional, organism-based; settings: Human immunodeficiency virus 1, 3B
[3] = Cytotoxicity against human MT2 cells after 4 to 5 days by MTT assay; format: cell-based

Compound CC(C)=C1CC[C@@]2(C)C/C=C(\C)CC/C=C(\C)CC[C@H]12 has a selectivity ratio [1] of 8.7, an EC50 [2] of 210 µM and a CC50 [3] of 1830 µM.

In the case of CC(C)=C1C(=O)C[C@@]2(C)C[C@@H]3O[C@@]3(C)CC[C@@H]3O[C@@]3(C)CC[C@H]12, the selectivity ratio [1] is reported as 2320, the EC50 [2] is reported as 0.73 µM and the CC50 [3] is reported as 1690 µM.

In the case of C=C1CC[C@@H]2C(=C(C)C)C(=O)C[C@@]2(C)C[C@@H](O)[C@](C)(O)CC[C@@H]1O, the selectivity ratio [1] is reported as 236, the EC50 [2] is reported as 3.9 µM and the CC50 [3] is reported as 920 µM.

For CC(C)=C1C(=O)C[C@@]2(C)C/C=C(\CO)CC/C=C(\C)CC[C@H]12, the selectivity ratio [1] was 1420, the EC50 [2] was 0.69 µM and the CC50 [3] was 980 µM.

For C[C@H]1/C=C/[C@@]2(C)CC[C@@H](C(C)(C)O)[C@@H]2[C@@H](O)C[C@@](C)(O)/C=C\C1, the selectivity ratio [1] was 184, the EC50 [2] was 6.16 µM and the CC50 [3] was 1130 µM.

Compound CC(C)=C1C(=O)C[C@@]2(C)C/C=C(\C)CC/C=C(\C)CC[C@H]12 [DOLABELLANE] has a selectivity ratio [1] of 13.5, an EC50 [2] of 190 µM and a CC50 [3] of 2570 µM.

With Cc1ccnc2c1NC(=O)c1cccnc1N2C1CC1 [NEVIRAPINE] the CC50 [3] was 320 µM.
